From article PMC7686103 (Bioorganic & medicinal chemistry letters, 2020) come the findings set out here.

One experiment addresses hCB2 receptors (Homo sapiens, UniProt P34972). Put plainly: [35S]GTPγS binding, modulation of G-protein activity in CHO-hCB2 cell membranes. It is filed as biochemical. To be noted: 10 μM.
The next experiment concerns the target hCB1 receptors (Homo sapiens, UniProt P21554). Nature of the experiment: [35S]GTPγS binding, modulation of G-protein activity in CHO-hCB1 cell membranes. Format: biochemical. The settings on record: 10 μM. On the technique in general: GTPγS resists hydrolysis and so accumulates on activated G proteins.

Sequence of hCB2 receptors (P34972 whole entry): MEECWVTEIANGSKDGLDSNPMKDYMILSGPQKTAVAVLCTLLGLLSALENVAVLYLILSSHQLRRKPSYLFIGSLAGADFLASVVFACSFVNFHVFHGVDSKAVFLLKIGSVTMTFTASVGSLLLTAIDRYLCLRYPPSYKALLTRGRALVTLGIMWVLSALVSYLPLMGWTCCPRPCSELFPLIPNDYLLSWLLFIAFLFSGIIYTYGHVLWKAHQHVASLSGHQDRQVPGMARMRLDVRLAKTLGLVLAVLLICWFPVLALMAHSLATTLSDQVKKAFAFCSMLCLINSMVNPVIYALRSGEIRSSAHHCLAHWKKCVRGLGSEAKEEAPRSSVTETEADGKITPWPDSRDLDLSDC
Sequence of hCB1 receptors (P21554 whole entry): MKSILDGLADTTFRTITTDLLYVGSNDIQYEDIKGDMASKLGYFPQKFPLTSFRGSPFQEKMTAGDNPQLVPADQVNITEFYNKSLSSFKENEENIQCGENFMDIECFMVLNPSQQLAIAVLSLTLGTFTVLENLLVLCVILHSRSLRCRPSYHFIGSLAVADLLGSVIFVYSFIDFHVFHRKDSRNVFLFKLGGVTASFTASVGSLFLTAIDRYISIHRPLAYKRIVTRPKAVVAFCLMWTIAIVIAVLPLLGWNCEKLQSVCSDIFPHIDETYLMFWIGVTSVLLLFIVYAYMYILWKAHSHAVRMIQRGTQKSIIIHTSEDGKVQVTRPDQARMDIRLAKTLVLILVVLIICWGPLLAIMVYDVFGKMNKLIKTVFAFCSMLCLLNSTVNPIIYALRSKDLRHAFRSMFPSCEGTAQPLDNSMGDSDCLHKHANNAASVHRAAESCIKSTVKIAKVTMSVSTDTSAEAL

As for `COc1ccc(C(=O)c2c(C)n(CCN3CCOCC3)c3cc(I)ccc23)cc1` [AM-630, reference compound], the “Intrinsic activity at hCB2 receptors (modulation of [35S]GTPγS binding)” value (“Intrinsic activity at hCB2 receptors” below) at hCB2 receptors is reported as “inverse agonist activity”.

In the case of `O=C1/C(=C/c2cn(Cc3ccccc3)c3ncccc23)N2CCC1CC2` [Compound 8a], on hCB1 receptors, the “Intrinsic activity at hCB1 receptors (modulation of [35S]GTPγS binding)” value (from here on “Intrinsic activity at hCB1 receptors”) is “neutral antagonist”. For the same compound, on hCB2 receptors, the “Intrinsic activity at hCB2 receptors” value is given as “neutral antagonist”.

`O=C1/C(=C/c2cn(Cc3ccc(Cl)cc3)c3ncccc23)N2CCC1CC2` [Compound 8b]: the “Intrinsic activity at hCB1 receptors” value on hCB1 receptors is listed as “inverse agonist activity”. In addition, on hCB2 receptors, the “Intrinsic activity at hCB2 receptors” value is given as “inverse agonist activity”.

For the compound `O=C1/C(=C/c2cn(Cc3ccc(Br)cc3)c3ncccc23)N2CCC1CC2` [Compound 8f], the “Intrinsic activity at hCB1 receptors” value on hCB1 receptors was “inverse agonist”. Also, the “Intrinsic activity at hCB2 receptors” value on hCB2 receptors is “neutral antagonist”.

Regarding `O=C1/C(=C/c2cn(Cc3ccc(F)cc3)c3ncccc23)N2CCC1CC2` [Compound 8g], on hCB1 receptors, the “Intrinsic activity at hCB1 receptors” value was “neutral antagonist”. For the same compound, the “Intrinsic activity at hCB2 receptors” value at hCB2 receptors is on record as “partial agonist”.
